{"source": "patent US20070212412A1", "about": "“STABLE SOLID FORMULATION OF SERTINDOLE” (H. Lundbeck A/S, priority 2005, published 2007)", "key": {"α1-adrenergic receptors": {"test_system": "α1-adrenergic receptors", "settings": "cited from earlier work"}, "[1]": {"settings": "clinical development programme; cited from earlier work"}, "dopamine D2": {"target": "dopamine D2 (Homo sapiens, UniProt P14416)", "sequence (P14416 whole entry)": "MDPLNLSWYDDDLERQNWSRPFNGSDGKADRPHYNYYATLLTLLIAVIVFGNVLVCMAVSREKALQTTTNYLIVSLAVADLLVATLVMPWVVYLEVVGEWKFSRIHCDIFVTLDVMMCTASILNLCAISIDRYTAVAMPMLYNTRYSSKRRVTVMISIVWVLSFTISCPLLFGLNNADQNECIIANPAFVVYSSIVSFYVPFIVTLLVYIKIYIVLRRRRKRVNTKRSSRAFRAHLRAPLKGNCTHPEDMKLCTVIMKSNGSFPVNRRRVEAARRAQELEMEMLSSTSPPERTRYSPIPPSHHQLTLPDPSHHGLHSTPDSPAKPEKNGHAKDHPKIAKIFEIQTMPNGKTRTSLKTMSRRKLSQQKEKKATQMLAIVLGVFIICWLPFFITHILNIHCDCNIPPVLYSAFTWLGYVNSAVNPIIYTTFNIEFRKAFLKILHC", "settings": "cited from earlier work"}, "serotonin 5-HT2": {"test_system": "serotonin 5-HT2", "settings": "cited from earlier work"}, "[2]": {"assay": "Light stability study of film-coated sertindole tablets (HPLC degradation products)", "format": "physicochemical", "settings": "film-coated tablets with white film-coating layer containing titanium dioxide, 2-4% film-layer relative to tablet core weight", "excerpt": "10 tablets of each sample were placed in a light cabinet (Heraeus Suntest CPS+) and were exposed to light providing an overall illumination of not less than 1.2 million lux hours, and an integrated near ultraviolet energy of not less than 200 watt hours/m^2. The tablets were placed directly in petri dishes in a single layer. […] The dark control was placed beside the sample and was protected against light, wrapped in aluminium foil. After light exposure the tablets (sample and dark control) were analysed for degradation products by HPLC analysis.\nThe samples of 10 tablets were disintegrated by the means of 0.1 M acetic acid. Next acetonitrile was added for extraction and subsequently the samples were made to volume with methanol/water (50/50). Final concentration: 0.4 mg/ml.\nSamples from the light stability studies were analysed by HPLC.\nReversed phase chromatography was performed using a LiChrospher 100 RP-8, 5 μm, 250×4 mm ID with pre-column: LiChrospher 100 RP-8, 5 μm.\nThe mobile phase consisted of Tetrahydrofurane/acetonitrile/25 mM phosphate buffer pH 7.2 (7/43/50). […]\nQuantification of the degradation products was done from area %, using the normalization factor 0.9 for Lu 26-115 (1-(2-(4-(5-Chloro-1-(4-fluorophenyl)-1H-indol-3-yl)-1-piperidinyl-1-oxide)ethyl)-2-imidazolidinone) and the normalization factor 1.0 for other impurities."}}, "data": [{"compound": "O=C1NCCN1CCN1CCC(c2cn(-c3ccc(F)cc3)c3ccc(Cl)cc23)CC1", "note": "[Sertindole]", "values": [{"measurement": "affinity for α1-adrenergic receptors", "setting": "α1-adrenergic receptors", "value": "high affinity"}, {"measurement": "effect on symptoms of schizophrenia", "setting": "[1]", "value": "effect against both positive and negative symptoms of schizophrenia"}, {"measurement": "incidence of extrapyramidal side effects", "setting": "[1]", "value": "placebo-level incidence"}, {"measurement": "tolerability", "setting": "[1]", "value": "well-tolerated"}, {"measurement": "affinity for dopamine D2", "setting": "dopamine D2", "value": "high affinity"}, {"measurement": "affinity for serotonin 5-HT2", "setting": "serotonin 5-HT2", "value": "high affinity"}, {"measurement": "light sensitivity", "setting": "[2]", "value": "undergoes a light-induced degradation process"}]}]}
